3 compounds from publication PMC4827093, “Proximal ADP-ribose Hydrolysis in Trypanosomatids is Catalyzed by a Macrodomain” (Scientific Reports, 2016) can be followed below.

Molecules are shown by their SMILES. pKd: −log10 of the molar value. Where two headings read alike, the source gives them in different places.

Assay [1] addresses T1, TcMDO (Trypanosoma cruzi MacroD-like protein) (Trypanosoma cruzi, UniProt Q4DQ03).
T1 construct: gene Tc00.1047053509179.20; full-length, codon-optimized synthetic cDNA, pNH-TrxT vector, E. coli BL21(DE3), fusion tags cut with TEV protease; crystal structure comprises residues 13-257
T1 sequence (Q4DQ03 1-267): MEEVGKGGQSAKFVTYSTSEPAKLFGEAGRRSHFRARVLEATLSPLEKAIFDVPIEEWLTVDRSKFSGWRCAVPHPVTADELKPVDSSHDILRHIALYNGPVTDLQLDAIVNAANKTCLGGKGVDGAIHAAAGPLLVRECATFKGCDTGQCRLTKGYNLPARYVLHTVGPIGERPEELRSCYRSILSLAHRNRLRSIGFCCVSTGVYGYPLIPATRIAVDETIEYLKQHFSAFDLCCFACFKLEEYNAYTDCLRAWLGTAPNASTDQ
The assay is described as follows: isothermal titration calorimetry. In kind it is binding.

Assay [2] has as its target T2, TbMDO (Trypanosoma brucei MacroD-like protein) (Trypanosoma brucei, UniProt C9ZP98).
T2 construct: gene TbgDal_V3640; full-length, codon-optimized synthetic cDNA, pNH-TrxT vector, E. coli BL21(DE3), fusion tags cut with TEV protease; crystal structures comprise residues 11-261
T2 sequence (C9ZP98 1-265): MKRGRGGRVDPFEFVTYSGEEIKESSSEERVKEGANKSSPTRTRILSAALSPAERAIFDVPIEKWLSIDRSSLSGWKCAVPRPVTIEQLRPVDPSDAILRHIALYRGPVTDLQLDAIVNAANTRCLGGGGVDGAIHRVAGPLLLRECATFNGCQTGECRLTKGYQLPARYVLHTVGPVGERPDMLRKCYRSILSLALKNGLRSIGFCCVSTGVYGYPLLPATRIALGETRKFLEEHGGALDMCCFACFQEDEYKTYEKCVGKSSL
The assay is described as follows: isothermal titration calorimetry. The assay is classed as binding. In general terms: In ITC the heat of successive injections is recorded.

The target in assay [3] is T2, TbMDO (Trypanosoma brucei MacroD-like protein). The assay is described as follows: ESI-TOF mass spectrometry of hydrolysis products. The note with it: 0.5 mM 2′/3′-O-acetyl-ADP-ribose, 50 μM protein, 22 °C, 4 h; isomer mixture. In kind it is biochemical.
The target in assay [4] is T1, TcMDO (Trypanosoma cruzi MacroD-like protein). The assay is described as follows: ESI-TOF mass spectrometry of hydrolysis products. The assay is classed as biochemical. As to conditions: 0.5 mM 2′/3′-O-acetyl-ADP-ribose, 50 μM protein, 22 °C, 4 h; isomer mixture.
The mark [5] stands for this setting: pH 7.5, 50 mM HEPES, 250 mM NaCl, 0.5 mM TCEP, 25 °C, three titrations, same data as the Ka row, read-out: affinities.

`Nc1ncnc2c1ncn2[C@@H]1O[C@H](COP(=O)(O)OP(=O)(O)OC[C@H]2OC(O)[C@H](O)[C@@H]2O)[C@@H](O)[C@H]1O` (some centres unmarked) [ADP-ribose]: the results for the pKd in assay [1] (setting [5]) and in assay [2] (setting [5]) were 6.70 and 5.89, respectively.

Turning to `CC(=O)O[C@H]1C(O)O[C@H](COP(=O)(O)OP(=O)(O)OC[C@H]2O[C@@H](n3cnc4c(N)ncnc43)[C@H](O)[C@@H]2O)[C@H]1O` (some centres unmarked) [O-acetyl-ADP-ribose], the “ESI-TOF mass spectrometry of hydrolysis products” value in assay [3] and in assay [4] was “Incubation of O-acetyl-ADP-ribose with both proteins resulted in the decrease of the mass” throughout.

Consider `Nc1ncnc2c1ncn2[C@@H]1O[C@H](COP(=O)(O)OP(=O)(O)O)[C@@H](O)[C@H]1O` [ADP], for which the Kd in assay [1] (read-out: K (converted)) is 820 µM; in assay [2] (read-out: K (converted)) it was 1.85 mM. The pKd in assay [1] (read-out: KD) is 3.10; in assay [2] (read-out: KD), 2.72.
